Results published in ChEMBL document CHEMBL1201862, “PubChem BioAssay data set” (2004).
Activity calls are given as the source filed them.

Tests used:
[1] = target: T1, Carboxy-terminal domain RNA polymerase II polypeptide A small phosphatase 1 (Homo sapiens, UniProt Q9GZU7); experiment: inhibitors of CTDSP1, concentration-response testing, biochemical assay, absorbance-based, actives from ultra-high-throughput screening (AID 540297); assay type: functional
T1 sequence (Q9GZU7 whole entry): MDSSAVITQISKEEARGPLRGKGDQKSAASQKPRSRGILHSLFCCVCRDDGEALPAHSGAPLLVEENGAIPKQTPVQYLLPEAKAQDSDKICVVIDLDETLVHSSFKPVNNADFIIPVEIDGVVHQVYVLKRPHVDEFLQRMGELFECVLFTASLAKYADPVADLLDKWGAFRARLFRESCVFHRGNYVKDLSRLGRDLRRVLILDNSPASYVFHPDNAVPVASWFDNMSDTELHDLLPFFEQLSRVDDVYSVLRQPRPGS

Leucine aminopeptidase = target: T2, Leucine aminopeptidase (Plasmodium falciparum 3D7, UniProt Q8IL11); experiment: P. falciparum M17LAP inhibitors, primary screen, biochemical, fluorogenic H-Leu-NHMec substrate, 1536-well (AID 1619); assay type: functional
T2 sequence (Q8IL11 whole entry): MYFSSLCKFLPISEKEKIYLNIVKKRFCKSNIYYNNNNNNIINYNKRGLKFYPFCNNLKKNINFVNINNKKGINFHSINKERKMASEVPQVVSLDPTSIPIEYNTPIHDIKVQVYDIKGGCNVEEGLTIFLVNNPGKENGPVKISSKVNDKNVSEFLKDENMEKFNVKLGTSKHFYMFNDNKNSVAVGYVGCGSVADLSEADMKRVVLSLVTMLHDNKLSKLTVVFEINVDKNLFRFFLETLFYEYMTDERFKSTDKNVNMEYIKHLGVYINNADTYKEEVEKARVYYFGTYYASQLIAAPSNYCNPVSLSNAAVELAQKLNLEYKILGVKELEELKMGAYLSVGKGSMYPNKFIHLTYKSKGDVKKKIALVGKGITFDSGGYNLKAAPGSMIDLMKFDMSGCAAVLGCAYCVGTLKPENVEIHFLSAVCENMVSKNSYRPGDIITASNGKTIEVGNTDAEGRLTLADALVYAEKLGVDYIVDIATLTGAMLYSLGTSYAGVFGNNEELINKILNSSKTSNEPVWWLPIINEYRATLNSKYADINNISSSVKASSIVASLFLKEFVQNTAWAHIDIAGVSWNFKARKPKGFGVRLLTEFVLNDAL

[2] = target: Glyceraldehyde-3-phosphate dehydrogenase (Homo sapiens, UniProt P04406)
Glyceraldehyde-3-phosphate dehydrogenase, sequence (P04406 whole entry): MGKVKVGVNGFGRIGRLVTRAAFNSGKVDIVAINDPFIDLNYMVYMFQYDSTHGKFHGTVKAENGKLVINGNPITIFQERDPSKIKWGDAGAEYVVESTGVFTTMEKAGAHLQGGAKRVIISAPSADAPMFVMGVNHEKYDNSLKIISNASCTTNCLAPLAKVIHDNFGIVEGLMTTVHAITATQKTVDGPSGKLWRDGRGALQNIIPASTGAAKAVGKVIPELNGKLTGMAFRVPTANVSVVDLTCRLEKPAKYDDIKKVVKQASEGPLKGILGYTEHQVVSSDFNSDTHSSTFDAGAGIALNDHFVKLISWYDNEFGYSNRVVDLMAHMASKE

[3] = control 3'UTR Renilla luciferase suppression, dose response, counter-screen for Shn3 inhibitor project, cell-based, Clone20-Shn3RL, cherry-picked (AID 624133); assay type: functional
[4] = Shn3 3'UTR reporter inhibitors, dose response, cell-based, Clone20 osteoblasts, firefly luciferase, cherry-picked (AID 624132); assay type: functional;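 note: firefly luciferase luminescence from reporter carrying the Shn3 3'UTR in osteoblasts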
HEK293 = experiment: inhibitors of LMP1-driven NF-kB reporter, dose response, cell-based, HEK293, luciferase, cherry-pick (AID 588343); assay type: functional; conditions: Homo sapiens
[5] = target: Heat shock protein HSP 90-alpha (Homo sapiens, UniProt P07900); assay type: functional, organism-based
Vero = experiment: cells; assay type: functional; conditions: Chlorocebus sabaeus
[6] = HepG2 cell cytotoxicity, dose response, cytotoxicity control for Shn3 inhibitor project, CellTiter-Glo, cherry-picked (AID 624134); assay type: functional, cell-based
[7] = Vero E6 cell cytotoxicity, dose response, cytotoxicity control for non-replicating M. tuberculosis project, secondary assay (AID 492998); assay type: functional, VeroE6; conditions: Vero C1008
cells = assay type: functional
[8] = inhibitors of intracellular T. cruzi replication, confirmation, NIH3T3 host cells, beta-gal luminescence (AID 2044); assay type: functional, cell-based;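 note: intracellular parasites grown in NIH/3T3 mouse fibroblasts as host cells; luminescent beta-galactosidase reporter signal from transgenic T. cruzi replicating inside host cells; inhibitors lower the luminescence signal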
[9] = cytotoxicity toward NIH3T3 fibroblasts, dose response, counter-screen, cell-based, ATP luminescence, mouse fibroblasts (AID 2010); assay type: functional;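 note: cells exposed to compound for about 90 hours before reading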
[10] = target: Glucose-6-phosphate 1-dehydrogenase (Homo sapiens, UniProt P11413); experiment: human G6PD enzyme inhibitors, dose response, selectivity assay for P. falciparum G6PD inhibitor project, biochemical, fluorescence (AID 504792); assay type: functional
Glucose-6-phosphate 1-dehydrogenase, sequence (P11413 whole entry): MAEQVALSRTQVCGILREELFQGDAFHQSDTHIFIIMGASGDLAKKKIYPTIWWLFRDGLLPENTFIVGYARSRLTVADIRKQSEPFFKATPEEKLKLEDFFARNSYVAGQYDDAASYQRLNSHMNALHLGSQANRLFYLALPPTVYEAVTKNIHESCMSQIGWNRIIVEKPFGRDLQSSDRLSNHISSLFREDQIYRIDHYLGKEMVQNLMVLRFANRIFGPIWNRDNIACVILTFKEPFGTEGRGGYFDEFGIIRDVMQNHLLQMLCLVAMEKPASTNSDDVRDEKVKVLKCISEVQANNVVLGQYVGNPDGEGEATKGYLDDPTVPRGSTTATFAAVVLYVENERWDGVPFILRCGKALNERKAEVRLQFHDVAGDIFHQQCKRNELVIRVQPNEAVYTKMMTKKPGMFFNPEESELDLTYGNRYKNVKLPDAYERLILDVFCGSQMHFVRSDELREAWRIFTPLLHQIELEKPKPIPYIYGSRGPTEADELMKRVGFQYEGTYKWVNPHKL

[11] = target: T3, Small ubiquitin-related modifier 1 (Homo sapiens, UniProt P63165); experiment: inhibitors of SUMO1 peptide binding, dose response, biochemical, fluorescence polarization, uHTS hits (AID 624382); assay type: functional; conditions: read-out: IC50_Mean
T3 sequence (P63165 whole entry): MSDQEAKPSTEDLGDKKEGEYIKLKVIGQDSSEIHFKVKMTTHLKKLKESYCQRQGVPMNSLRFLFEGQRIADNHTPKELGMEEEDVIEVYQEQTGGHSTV

[12] = target: T3, Small ubiquitin-related modifier 1; experiment: inhibitors of SUMO1 partner interactions, dose response, biochemical, FRET (AID 624383); assay type: functional; conditions: read-out: IC50_Mean
[13] = A Cell Based Secondary Assay To Explore Cytotoxicity of Compounds that Sensitize Mycobacterium Tuberculosis to Beta-Lactam Antibiotics.; assay type: functional
BJ [14] = experiment: cells; assay type: functional, cell-based; conditions: Homo sapiens
BJ [15] = experiment: cytotoxicity toward BJ-TERT-LT-ST fibroblasts, dose response, cell-based, RAS-independent, luminescence (AID 1935); assay type: functional; conditions: Homo sapiens;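 note: BJ fibroblasts immortalized with TERT plus LT and ST oncogenes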
BJ [16] = experiment: cytotoxicity toward BJ-TERT fibroblasts, dose response, cell-based, RAS-independent, luminescence (AID 1933); assay type: functional; conditions: Homo sapiens
[17] = cytotoxicity toward DRD oncogenic fibroblasts, dose response, cell-based, non-viral oncogenic, luminescence (AID 1934); assay type: functional; conditions: Homo sapiens
[18] = target: T4, Rac GTPase-activating protein 1 (Homo sapiens, UniProt Q9H0H5); experiment: MgcRacGAP GTPase-activating activity inhibitors, confirmation, biochemical, ADP Hunter fluorescence, primary and confirmatory (AID 624330); assay type: functional
T4 sequence (Q9H0H5 whole entry): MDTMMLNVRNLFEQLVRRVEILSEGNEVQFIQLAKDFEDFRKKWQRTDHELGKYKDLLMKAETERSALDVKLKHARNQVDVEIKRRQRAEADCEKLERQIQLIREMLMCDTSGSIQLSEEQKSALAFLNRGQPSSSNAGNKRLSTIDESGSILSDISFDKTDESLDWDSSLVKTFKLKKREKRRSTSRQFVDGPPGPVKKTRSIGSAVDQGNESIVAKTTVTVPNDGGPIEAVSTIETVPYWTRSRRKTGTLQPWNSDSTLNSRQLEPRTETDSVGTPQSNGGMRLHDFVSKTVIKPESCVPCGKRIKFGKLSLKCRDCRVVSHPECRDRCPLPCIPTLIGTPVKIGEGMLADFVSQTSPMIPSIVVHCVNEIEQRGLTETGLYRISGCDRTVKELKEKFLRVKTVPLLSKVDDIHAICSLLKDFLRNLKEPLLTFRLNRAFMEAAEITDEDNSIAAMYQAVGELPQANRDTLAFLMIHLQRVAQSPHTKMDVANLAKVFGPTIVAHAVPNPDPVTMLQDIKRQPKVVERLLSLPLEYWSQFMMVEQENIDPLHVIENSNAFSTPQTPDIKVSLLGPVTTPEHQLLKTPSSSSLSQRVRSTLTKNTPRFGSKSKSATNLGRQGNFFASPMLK

Melanocortin receptor 4 = Melanocortin receptor 4 (Homo sapiens, UniProt P32245); assay type: functional, cell-based;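 note: Cell-based assay with luminescence read-out, confirmatory dose-response testing for agonist activity of biased ligands at MC4R; human U2OS cells with tagged receptor and beta-arrestin; potency of agonists that increase receptor coupling to beta-arrestin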
Melanocortin receptor 4, sequence (P32245 whole entry): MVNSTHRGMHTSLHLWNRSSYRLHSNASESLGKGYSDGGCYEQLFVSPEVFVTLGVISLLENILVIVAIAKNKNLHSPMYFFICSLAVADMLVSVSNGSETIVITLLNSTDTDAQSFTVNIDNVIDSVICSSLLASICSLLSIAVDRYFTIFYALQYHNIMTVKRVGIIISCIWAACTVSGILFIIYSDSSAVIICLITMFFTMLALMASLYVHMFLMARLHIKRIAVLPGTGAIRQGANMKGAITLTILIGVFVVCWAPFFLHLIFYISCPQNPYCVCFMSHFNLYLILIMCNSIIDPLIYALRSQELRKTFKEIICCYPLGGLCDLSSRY

Protein Wnt-3a = Protein Wnt-3a (Mus musculus, UniProt P27467); experiment: Wnt3a-driven reporter signaling inhibition, dose response, selectivity assay for Gli-SUFU antagonist project, Wnt-LIGHT cells, luminescence (AID 651570); assay type: functional; conditions: read-out: IC50_Mean;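 note: Wnt-LIGHT reporter cells stimulated with conditioned medium from Wnt3a-producing cells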
Protein Wnt-3a, sequence (P27467 whole entry): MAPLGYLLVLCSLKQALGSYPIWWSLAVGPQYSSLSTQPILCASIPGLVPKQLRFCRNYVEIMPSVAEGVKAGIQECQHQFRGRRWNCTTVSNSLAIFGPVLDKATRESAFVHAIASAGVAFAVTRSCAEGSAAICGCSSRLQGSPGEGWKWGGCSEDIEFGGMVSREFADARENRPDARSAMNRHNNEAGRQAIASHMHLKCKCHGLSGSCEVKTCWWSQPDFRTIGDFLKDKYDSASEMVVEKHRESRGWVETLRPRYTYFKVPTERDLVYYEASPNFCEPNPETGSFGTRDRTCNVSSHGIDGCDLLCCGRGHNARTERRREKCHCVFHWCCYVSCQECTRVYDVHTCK

[19] = cytotoxicity in HEK-293T cells, dose response, cytotoxicity control for TCR NF-kB inhibitor project, luminescence, T-cell screen hits (AID 489026); assay type: functional, cell-based;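 note: cells exposed to compound about 14 hours before the viability readout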

Question: Which results are given for `CC1=NNC(=O)C1CCC(=O)N/N=C/c1ccco1` (configuration not stated)?
Answer: IC50 [1]: > 80 µM (inactive); IC50 (Leucine aminopeptidase): 69.2 µM (active)

Question: With `O=C1C(Cl)=C(N2CCN(C/C=C/c3ccccc3)CC2)C(=O)N1c1ccnc(Cl)c1` as the compound, how does the IC50 [2] read?
Answer: The IC50 was > 50 µM (inconclusive).

Question: What does the source list for `CCCCC(=O)NC(c1cccc([N+](=O)[O-])c1)c1ccc2cccnc2c1O` (configuration not stated)?
Answer: AC50 [3]: 2.08 µM (active); AC50 [4]: 1 µM (active); AC50 (HEK293): 5.92 µM (active); AC50 [5]: 2.69 µM (active); CC50 (Vero): 1.23 µM (active); AC50 [6]: 2.41 µM (active)

Question: For `O=C(N/N=C/c1ccc([N+](=O)[O-])s1)c1ccncc1`, which CC50 [7] is on record?
Answer: The CC50 was 15.6 µM (active).

Question: And the IC50 (cells)?
Answer: Its IC50 is 1 µM (active).

Question: And the EC50 [8]?
Answer: The EC50 was 0.838 µM (active).

Question: And the EC50 [9]?
Answer: Its EC50 is > 60 µM (not active).

Question: For `C/C(Cn1nnc([N+](=O)[O-])n1)=N\NC(=O)c1ccccc1O`, which IC50 [10] is on record?
Answer: Its IC50 is > 80 µM (inactive).

Question: For `CCC(C)[C@@H](CN)NCC1(c2ccccc2)CC1` (some centres not stated), which IC50 [11] is on record?
Answer: Its IC50 is > 66.6 µM (inactive).

Question: And the IC50 [12]?
Answer: Its IC50 is 18.4 µM (active).

Question: For `N#Cc1c(C(F)(F)F)cc(-c2ccccc2)nc1SCC(=O)Nc1sc2c(c1C#N)CCC2`, which CC50 [13] is on record?
Answer: Its CC50 is > 40 µM (active).

Question: And the EC50 (BJ [14])?
Answer: Its EC50 is > 150 µM (inconclusive).

Question: And the EC50 (BJ [15])?
Answer: The EC50 was > 150 µM (not active).

Question: And the EC50 (BJ [16])?
Answer: Its EC50 is > 150 µM (not active).

Question: What about the EC50 [17] of the same compound?
Answer: Its EC50 is > 150 µM (inconclusive).

Question: With `O=C(Sc1nnc(O)nc1O)c1ccccc1` as the compound, how does the IC50 [10] read?
Answer: The IC50 was > 80 µM (inactive).

Question: What about the IC50 [18] of the same compound?
Answer: The IC50 was 224 µM (active).

Question: With `CC(/C=C/C=C/c1ccccc1)=N/NC(=O)CNc1ccccc1C` as the compound, how does the EC50 (Melanocortin receptor 4) read?
Answer: Its EC50 is > 89.3 µM (inactive).

Question: Which IC50 (Protein Wnt-3a) does the source give for `Cc1nc2ccccc2n1CC(=O)NC(C)C1CC2CCC1C2` (configuration not stated) here?
Answer: The IC50 was 4.3 µM (active).

Question: For `NS(=O)(=O)c1ccc(Sc2nc3ccccc3s2)c([N+](=O)[O-])c1`, which CC50 [13] is on record?
Answer: The CC50 was 13 µM (active).

Question: What about the IC50 [19] of the same compound?
Answer: Its IC50 is > 80 µM (inactive).
